In patent US10246419B2, “Liver X receptor (LXR) modulators” (Ralexar Therapeutics, Inc., priority 2013, dated 2019):

What follows are compounds tested against human LXRβ (AA 153-461) LBD (Homo sapiens (Human), UniProt P55055) (assay: Gal4 LXRβ cotransfection assay (LXRβ Gal fusion assay)). Details: HEK 293 cells transiently transfected, Gal4-responsive luciferase reporter, compounds 0.01-10 μM.
Format: cell-based
Method: For transient transfection of HEK 293 cells, 6×10^3 cells are plated into 96-well dishes. Each well is transfected with 25 ng 5×UAS-luciferase reporter (pG5luc) and 25 ng of pM human LXRβ (AA 153-461) LBD plasmid using Fugene 6 reagent (Roche; Indianapolis, Ind.). The chimeric protein is assessed for the ability to transactivate a Gal4-responsive luciferase reporter plasmid in a concentration-responsive manner to compounds (0.01-10 μM). Luciferase activity at each dose concentration is measured in triplicate using standard substrate reagents (BD Biosciences; San Diego, Calif.).

Sequence of human LXRβ (AA 153-461) LBD (P55055 153-460 limits assumed): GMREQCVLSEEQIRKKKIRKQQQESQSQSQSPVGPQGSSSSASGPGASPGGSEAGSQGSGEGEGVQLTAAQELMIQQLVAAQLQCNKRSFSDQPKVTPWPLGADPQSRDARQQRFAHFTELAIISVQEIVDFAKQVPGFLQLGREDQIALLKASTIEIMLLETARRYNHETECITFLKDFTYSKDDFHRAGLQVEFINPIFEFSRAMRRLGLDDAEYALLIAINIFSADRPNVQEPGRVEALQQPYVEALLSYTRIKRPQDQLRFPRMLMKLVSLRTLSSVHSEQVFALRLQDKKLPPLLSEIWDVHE

Row | Compound | EC50 [nM]
1 | CC(C)Cc1nc(C(C)(C)O)cn1-c1ccc(-c2cccc(S(C)(=O)=O)c2)cc1 [Compound 8, 2-(2-isobutyl-1-(3′-(methylsulfonyl)-[1,1′-biphenyl]-4-yl)-1H-imidazol-4-yl)propan-2-ol] | 1000 to 10000
2 | C=C(C)c1cc(-c2ccc(-c3cccc(S(C)(=O)=O)c3)cc2)n(CC(C)C)n1 [Compound 9, 1-isobutyl-5-(3′-(methylsulfonyl)-[1,1′-biphenyl]-4-yl)-3-(prop-1-en-2-yl)-1H-pyrazole] | 1000 to 10000
3 | CC(C)Cn1nc(C(C)(C)O)cc1-c1ccc(-c2ccc(CO)c(S(C)(=O)=O)c2)cc1 [Compound 10, 2-(5-(4′-(Hydroxymethyl)-3′-(methylsulfonyl)-[1,1′-biphenyl]-4-yl)-1-isobutyl-1H-pyrazol-3-yl)propan-2-ol] | 1000 to 10000
4 | CC(C)Cn1nc(C(C)(C)O)cc1-c1ccc(-c2cccc(S(C)(=O)=O)c2)cc1 [Compound 11, 2-(1-isobutyl-5-(3′-(methylsulfonyl)-[1,1′-biphenyl]-4-yl)-1H-pyrazol-3-yl)propan-2-ol] | 1000 to 10000
5 | CC(C)Cn1nc(C(C)C)cc1-c1ccc(-c2cccc(S(C)(=O)=O)c2)cc1 [Compound 12, 1-isobutyl-3-isopropyl-5-(3′-(methylsulfonyl)-[1,1′-biphenyl]-4-yl)-1H-pyrazole] | 1000 to 10000
6 | CCC(C)n1nc(C(F)(F)F)cc1-c1ccc(-c2cccc(S(C)(=O)=O)c2)cc1 (stereo not shown) [Compound 19, 1-(sec-butyl)-5-(3′-(methylsulfonyl)-[1,1′-biphenyl]-4-yl)-3-(trifluoromethyl)-1H-pyrazole] | > 10000
7 | CS(=O)(=O)c1cccc(-c2ccc(-c3cc(C(F)(F)F)nn3C3CCCCC3)cc2)c1 [Compound 20, 1-cyclohexyl-5-(3′-(methylsulfonyl)-[1,1′-biphenyl]-4-yl)-3-(trifluoromethyl)-1H-pyrazole] | > 10000
8 | CS(=O)(=O)c1cccc(-c2ccc(-c3cc(C(F)(F)F)nn3CC3CCCCC3)cc2)c1 [Compound 21, 1-(cyclohexylmethyl)-5-(3′-(methylsulfonyl)-[1,1′-biphenyl]-4-yl)-3-(trifluoromethyl)-1H-pyrazole] | < 1000

Continued, values first:

Row | EC50 [nM] | Compound
9 | < 1000 | CC(C)Cn1nc(C(F)(F)F)cc1-c1ccc(-c2cccc(S(C)(=O)=O)c2)cc1 [Compound 4, 1-isobutyl-5-(3′-(methylsulfonyl)biphenyl-4-yl)-3-(trifluoromethyl)-1H-pyrazole]
10 | < 1000 | CC(C)Cn1nc(C(F)(F)F)cc1-c1ccc(-c2ccc(CO)c(S(C)(=O)=O)c2)cc1 [Compound 5, (4′-(1-isobutyl-3-(trifluoromethyl)-1H-pyrazol-5-yl)-3-(methylsulfonyl)biphenyl-4-yl)methanol]
11 | < 1000 | CC(C)Cn1nc(C(=O)NCC(F)(F)F)cc1-c1ccc(-c2cccc(S(C)(=O)=O)c2)cc1 [Compound 6, 1-Isobutyl-5-(3′-(methylsulfonyl)-[1,1′-biphenyl]-4-yl)-N-(2,2,2-trifluoroethyl)-1H-pyrazole-3-carboxamide]
12 | < 1000 | CC(C)Cn1nc(C(=O)NCC(F)(F)F)cc1-c1ccc(-c2ccc(CO)c(S(C)(=O)=O)c2)cc1 [Compound 7, 5-(4′-(Hydroxymethyl)-3′-(methylsulfonyl)-[1,1′-biphenyl]-4-yl)-1-isobutyl-N-(2,2,2-trifluoroethyl)-1H-pyrazole-3-carboxamide]
13 | < 1000 | CS(=O)(=O)c1cccc(-c2ccc(-c3cc(C(F)(F)F)nn3CC3CC3)cc2)c1 [Compound 18, 1-(cyclopropylmethyl)-5-(3′-(methylsulfonyl)-[1,1′-biphenyl]-4-yl)-3-(trifluoromethyl)-1H-pyrazole]
